Experimental data: the supplement of paper PMC10307832

Key:
Test in all cases: relative viability (nuclei count vs DMSO), 5 days (fraction); higher = more cells survive
Ispinesib + Linsitinib = compound: Cc1ccc(C(=O)N(CCCN)[C@@H](c2nc3cc(Cl)ccc3c(=O)n2Cc2ccccc2)C(C)C)cc1 [Ispinesib] + C[C@]1(O)C[C@@H](c2nc(-c3ccc4ccc(-c5ccccc5)nc4c3)c3c(N)nccn32)C1 [Linsitinib] (partner 1 µM)
Outline: (§1)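 Nuclei were stained with Hoechst during a one-step fixation (final 0.05% Triton X-100, 1% formaldehyde, 1 ug/ml Hoechst) carried out 5 days after dosing, then counted on 4× images. The cells, lung cancer lines in 1536-well plates, had been dosed by pin tool the day after seeding with one drug alone or a fixed anchor-drug dose plus five library-drug doses (not always all listed) in √10 steps. Relative viability is the nuclei count in treated wells divided by that in vehicle wells, and each value is the median of duplicate plates.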

Ispinesib + Lapatinib = compound: Cc1ccc(C(=O)N(CCCN)[C@@H](c2nc3cc(Cl)ccc3c(=O)n2Cc2ccccc2)C(C)C)cc1 [Ispinesib] + CS(=O)(=O)CCNCc1ccc(-c2ccc3ncnc(Nc4ccc(OCc5cccc(F)c5)c(Cl)c4)c3c2)o1 [Lapatinib] (partner 2 µM)
Outline: as §1

Ispinesib + Olaparib = compound: Cc1ccc(C(=O)N(CCCN)[C@@H](c2nc3cc(Cl)ccc3c(=O)n2Cc2ccccc2)C(C)C)cc1 [Ispinesib] + O=C(c1cc(Cc2n[nH]c(=O)c3ccccc23)ccc1F)N1CCN(C(=O)C2CC2)CC1 [Olaparib] (partner 8 µM)
Outline: as §1

Ispinesib + Palbociclib = compound: Cc1ccc(C(=O)N(CCCN)[C@@H](c2nc3cc(Cl)ccc3c(=O)n2Cc2ccccc2)C(C)C)cc1 [Ispinesib] + CC(=O)c1c(C)c2cnc(Nc3ccc(N4CCNCC4)cn3)nc2n(C2CCCC2)c1=O [Palbociclib] (partner 0.5 µM)
Outline: as §1

LXF-289
relative viability (Ispinesib + Linsitinib; first compound 0.001 µM): 0.914 | relative viability (Ispinesib + Linsitinib; first compound 0.003162 µM): 0.987 | relative viability (Ispinesib + Linsitinib; first compound 0.01 µM): 1.09 | relative viability (Ispinesib + Linsitinib; first compound 0.03162 µM): 0.936 | relative viability (Ispinesib + Linsitinib; first compound 0.1 µM): 0.542 | relative viability (Ispinesib + Lapatinib; first compound 0.001 µM): 0.872 | relative viability (Ispinesib + Lapatinib; first compound 0.003162 µM): 0.909 | relative viability (Ispinesib + Lapatinib; first compound 0.01 µM): 1.01 | relative viability (Ispinesib + Lapatinib; first compound 0.03162 µM): 0.634 | relative viability (Ispinesib + Lapatinib; first compound 0.1 µM): 0.118 | relative viability (Ispinesib + Olaparib; first compound 0.001 µM): 1.07 | relative viability (Ispinesib + Olaparib; first compound 0.003162 µM): 1.21 | relative viability (Ispinesib + Olaparib; first compound 0.01 µM): 1.44 | relative viability (Ispinesib + Olaparib; first compound 0.03162 µM): 1.05 | relative viability (Ispinesib + Olaparib; first compound 0.1 µM): 0.95 | relative viability (Ispinesib + Palbociclib; first compound 0.001 µM): 0.629 | relative viability (Ispinesib + Palbociclib; first compound 0.003162 µM): 0.666 | relative viability (Ispinesib + Palbociclib; first compound 0.01 µM): 0.674 | relative viability (Ispinesib + Palbociclib; first compound 0.03162 µM): 0.619 | relative viability (Ispinesib + Palbociclib; first compound 0.1 µM): 0.589

NCI-H2087
relative viability (Ispinesib + Linsitinib; first compound 0.001 µM): 1.02 | relative viability (Ispinesib + Linsitinib; first compound 0.003162 µM): 0.979 | relative viability (Ispinesib + Linsitinib; first compound 0.01 µM): 1.02 | relative viability (Ispinesib + Linsitinib; first compound 0.03162 µM): 0.459 | relative viability (Ispinesib + Linsitinib; first compound 0.1 µM): 0.167 | relative viability (Ispinesib + Lapatinib; first compound 0.001 µM): 0.92 | relative viability (Ispinesib + Lapatinib; first compound 0.003162 µM): 1.04 | relative viability (Ispinesib + Lapatinib; first compound 0.01 µM): 1.35 | relative viability (Ispinesib + Lapatinib; first compound 0.03162 µM): 0.293 | relative viability (Ispinesib + Lapatinib; first compound 0.1 µM): 0.182 | relative viability (Ispinesib + Olaparib; first compound 0.001 µM): 0.708 | relative viability (Ispinesib + Olaparib; first compound 0.003162 µM): 0.694 | relative viability (Ispinesib + Olaparib; first compound 0.01 µM): 0.801 | relative viability (Ispinesib + Olaparib; first compound 0.03162 µM): 0.545 | relative viability (Ispinesib + Olaparib; first compound 0.1 µM): 0.145 | relative viability (Ispinesib + Palbociclib; first compound 0.001 µM): 0.206 | relative viability (Ispinesib + Palbociclib; first compound 0.003162 µM): 0.224 | relative viability (Ispinesib + Palbociclib; first compound 0.01 µM): 0.262 | relative viability (Ispinesib + Palbociclib; first compound 0.03162 µM): 0.172 | relative viability (Ispinesib + Palbociclib; first compound 0.1 µM): 0.112

CAL-12T
relative viability (Ispinesib + Linsitinib; first compound 0.001 µM): 0.98 | relative viability (Ispinesib + Linsitinib; first compound 0.003162 µM): 0.784 | relative viability (Ispinesib + Linsitinib; first compound 0.01 µM): 0.785 | relative viability (Ispinesib + Linsitinib; first compound 0.03162 µM): 0.778 | relative viability (Ispinesib + Linsitinib; first compound 0.1 µM): 0.193 | relative viability (Ispinesib + Lapatinib; first compound 0.001 µM): 0.625 | relative viability (Ispinesib + Lapatinib; first compound 0.003162 µM): 0.692 | relative viability (Ispinesib + Lapatinib; first compound 0.01 µM): 0.742 | relative viability (Ispinesib + Lapatinib; first compound 0.03162 µM): 0.488 | relative viability (Ispinesib + Lapatinib; first compound 0.1 µM): 0.235 | relative viability (Ispinesib + Olaparib; first compound 0.001 µM): 0.754 | relative viability (Ispinesib + Olaparib; first compound 0.003162 µM): 0.791 | relative viability (Ispinesib + Olaparib; first compound 0.01 µM): 0.896 | relative viability (Ispinesib + Olaparib; first compound 0.03162 µM): 0.768 | relative viability (Ispinesib + Olaparib; first compound 0.1 µM): 0.217 | relative viability (Ispinesib + Palbociclib; first compound 0.001 µM): 0.452 | relative viability (Ispinesib + Palbociclib; first compound 0.003162 µM): 0.409 | relative viability (Ispinesib + Palbociclib; first compound 0.01 µM): 0.29 | relative viability (Ispinesib + Palbociclib; first compound 0.03162 µM): 0.177 | relative viability (Ispinesib + Palbociclib; first compound 0.1 µM): 0.195

PC-14
relative viability (Ispinesib + Linsitinib; first compound 0.001 µM): 1.08 | relative viability (Ispinesib + Linsitinib; first compound 0.003162 µM): 1.13 | relative viability (Ispinesib + Linsitinib; first compound 0.01 µM): 1.1 | relative viability (Ispinesib + Linsitinib; first compound 0.03162 µM): 0.862 | relative viability (Ispinesib + Linsitinib; first compound 0.1 µM): 0.17 | relative viability (Ispinesib + Lapatinib; first compound 0.001 µM): 0.331 | relative viability (Ispinesib + Lapatinib; first compound 0.003162 µM): 0.397 | relative viability (Ispinesib + Lapatinib; first compound 0.01 µM): 0.363 | relative viability (Ispinesib + Lapatinib; first compound 0.03162 µM): 0.421 | relative viability (Ispinesib + Lapatinib; first compound 0.1 µM): 0.125 | relative viability (Ispinesib + Olaparib; first compound 0.001 µM): 0.27 | relative viability (Ispinesib + Olaparib; first compound 0.003162 µM): 0.141 | relative viability (Ispinesib + Olaparib; first compound 0.01 µM): 0.0942 | relative viability (Ispinesib + Olaparib; first compound 0.03162 µM): 0.0729 | relative viability (Ispinesib + Olaparib; first compound 0.1 µM): 0.144 | relative viability (Ispinesib + Palbociclib; first compound 0.001 µM): 0.493 | relative viability (Ispinesib + Palbociclib; first compound 0.003162 µM): 0.439 | relative viability (Ispinesib + Palbociclib; first compound 0.01 µM): 0.134 | relative viability (Ispinesib + Palbociclib; first compound 0.03162 µM): 0.0579 | relative viability (Ispinesib + Palbociclib; first compound 0.1 µM): 0.152

NCI-H1915
relative viability (Ispinesib + Linsitinib; first compound 0.001 µM): 1.13 | relative viability (Ispinesib + Linsitinib; first compound 0.003162 µM): 1.24 | relative viability (Ispinesib + Linsitinib; first compound 0.01 µM): 1.08 | relative viability (Ispinesib + Linsitinib; first compound 0.03162 µM): 1.12 | relative viability (Ispinesib + Linsitinib; first compound 0.1 µM): 1.03 | relative viability (Ispinesib + Lapatinib; first compound 0.001 µM): 0.958 | relative viability (Ispinesib + Lapatinib; first compound 0.003162 µM): 1.06 | relative viability (Ispinesib + Lapatinib; first compound 0.01 µM): 1 | relative viability (Ispinesib + Lapatinib; first compound 0.03162 µM): 0.363 | relative viability (Ispinesib + Lapatinib; first compound 0.1 µM): 0.139 | relative viability (Ispinesib + Olaparib; first compound 0.001 µM): 0.262 | relative viability (Ispinesib + Olaparib; first compound 0.003162 µM): 0.266 | relative viability (Ispinesib + Olaparib; first compound 0.01 µM): 0.298 | relative viability (Ispinesib + Olaparib; first compound 0.03162 µM): 0.258 | relative viability (Ispinesib + Olaparib; first compound 0.1 µM): 0.209 | relative viability (Ispinesib + Palbociclib; first compound 0.001 µM): 0.528 | relative viability (Ispinesib + Palbociclib; first compound 0.003162 µM): 0.694 | relative viability (Ispinesib + Palbociclib; first compound 0.01 µM): 0.542 | relative viability (Ispinesib + Palbociclib; first compound 0.03162 µM): 0.491 | relative viability (Ispinesib + Palbociclib; first compound 0.1 µM): 0.41

NCI-H647
relative viability (Ispinesib + Linsitinib; first compound 0.001 µM): 1.2 | relative viability (Ispinesib + Linsitinib; first compound 0.003162 µM): 1.26 | relative viability (Ispinesib + Linsitinib; first compound 0.01 µM): 0.949 | relative viability (Ispinesib + Linsitinib; first compound 0.03162 µM): 0.607 | relative viability (Ispinesib + Linsitinib; first compound 0.1 µM): 0.144 | relative viability (Ispinesib + Lapatinib; first compound 0.001 µM): 1.28 | relative viability (Ispinesib + Lapatinib; first compound 0.003162 µM): 0.693 | relative viability (Ispinesib + Lapatinib; first compound 0.01 µM): 0.481 | relative viability (Ispinesib + Lapatinib; first compound 0.03162 µM): 0.106 | relative viability (Ispinesib + Lapatinib; first compound 0.1 µM): 0.114 | relative viability (Ispinesib + Olaparib; first compound 0.001 µM): 0.749 | relative viability (Ispinesib + Olaparib; first compound 0.003162 µM): 0.545 | relative viability (Ispinesib + Olaparib; first compound 0.01 µM): 0.681 | relative viability (Ispinesib + Olaparib; first compound 0.03162 µM): 0.172 | relative viability (Ispinesib + Olaparib; first compound 0.1 µM): 0.143 | relative viability (Ispinesib + Palbociclib; first compound 0.001 µM): 0.393 | relative viability (Ispinesib + Palbociclib; first compound 0.003162 µM): 0.327 | relative viability (Ispinesib + Palbociclib; first compound 0.01 µM): 0.518 | relative viability (Ispinesib + Palbociclib; first compound 0.03162 µM): 0.208 | relative viability (Ispinesib + Palbociclib; first compound 0.1 µM): 0.0953

NCI-H322M
relative viability (Ispinesib + Linsitinib; first compound 0.001 µM): 0.966 | relative viability (Ispinesib + Linsitinib; first compound 0.003162 µM): 0.945 | relative viability (Ispinesib + Linsitinib; first compound 0.01 µM): 1.01 | relative viability (Ispinesib + Linsitinib; first compound 0.03162 µM): 0.569 | relative viability (Ispinesib + Linsitinib; first compound 0.1 µM): 0.921 | relative viability (Ispinesib + Lapatinib; first compound 0.001 µM): 0.654 | relative viability (Ispinesib + Lapatinib; first compound 0.003162 µM): 0.585 | relative viability (Ispinesib + Lapatinib; first compound 0.01 µM): 0.616 | relative viability (Ispinesib + Lapatinib; first compound 0.03162 µM): 0.438 | relative viability (Ispinesib + Lapatinib; first compound 0.1 µM): 0.319 | relative viability (Ispinesib + Olaparib; first compound 0.001 µM): 0.804 | relative viability (Ispinesib + Olaparib; first compound 0.003162 µM): 0.81 | relative viability (Ispinesib + Olaparib; first compound 0.01 µM): 0.855 | relative viability (Ispinesib + Olaparib; first compound 0.03162 µM): 0.786 | relative viability (Ispinesib + Olaparib; first compound 0.1 µM): 0.549 | relative viability (Ispinesib + Palbociclib; first compound 0.001 µM): 0.5 | relative viability (Ispinesib + Palbociclib; first compound 0.003162 µM): 0.505 | relative viability (Ispinesib + Palbociclib; first compound 0.01 µM): 0.494 | relative viability (Ispinesib + Palbociclib; first compound 0.03162 µM): 0.463 | relative viability (Ispinesib + Palbociclib; first compound 0.1 µM): 0.426

BEN
relative viability (Ispinesib + Linsitinib; first compound 0.001 µM): 1 | relative viability (Ispinesib + Linsitinib; first compound 0.003162 µM): 1.12 | relative viability (Ispinesib + Linsitinib; first compound 0.01 µM): 1.06 | relative viability (Ispinesib + Linsitinib; first compound 0.03162 µM): 0.682 | relative viability (Ispinesib + Linsitinib; first compound 0.1 µM): 0.32 | relative viability (Ispinesib + Lapatinib; first compound 0.001 µM): 0.906 | relative viability (Ispinesib + Lapatinib; first compound 0.003162 µM): 0.892 | relative viability (Ispinesib + Lapatinib; first compound 0.01 µM): 0.7 | relative viability (Ispinesib + Lapatinib; first compound 0.03162 µM): 0.357 | relative viability (Ispinesib + Lapatinib; first compound 0.1 µM): 0.247 | relative viability (Ispinesib + Olaparib; first compound 0.001 µM): 1.03 | relative viability (Ispinesib + Olaparib; first compound 0.003162 µM): 1.35 | relative viability (Ispinesib + Olaparib; first compound 0.01 µM): 1.13 | relative viability (Ispinesib + Olaparib; first compound 0.03162 µM): 0.832 | relative viability (Ispinesib + Olaparib; first compound 0.1 µM): 0.782 | relative viability (Ispinesib + Palbociclib; first compound 0.001 µM): 0.463 | relative viability (Ispinesib + Palbociclib; first compound 0.003162 µM): 0.514 | relative viability (Ispinesib + Palbociclib; first compound 0.01 µM): 0.478 | relative viability (Ispinesib + Palbociclib; first compound 0.03162 µM): 0.47 | relative viability (Ispinesib + Palbociclib; first compound 0.1 µM): 0.372
